The source of these data is ChEMBL document CHEMBL5512632, “Unlocking the potential of 1,4-naphthoquinones: A comprehensive review of their anticancer properties” (Eur J Med Chem, 2024).

One experiment concerns HCC1806. The experiment is described as follows: Antiproliferative activity against human HCC1806 cells assessed as inhibition of cell growth incubated upto 120 hrs by MTS assay. It is filed as functional, cell-based. The note with it: HCC1806, 120 h. (Tetrazolium assays rely on reduction of a dye to a coloured formazan, in cell work by metabolically active cells.)
For a further experiment, the system named is MDA-MB-231. Nature of the experiment: Antiproliferative activity against human MDA-MB-231 cells assessed as inhibition of cell growth incubated upto 120 hrs by MTS assay. It is filed as functional, cell-based. To be noted: MDA-MB-231, 120 h.
For the next experiment, the system named is Hs-578T. Nature of the experiment: Antiproliferative activity against human Hs-578T cells assessed as inhibition of cell growth incubated upto 120 hrs by MTS assay. It counts as functional, cell-based.
Experiment [1] relates to MCF7. The experiment is described as follows: Antiproliferative activity against human MCF7 cells assessed as inhibition of cell growth incubated upto 120 hrs by MTS assay. It is filed as functional, cell-based. The note with it: MCF7, 120 h.
Experiment [2] deals with A549. Nature of the experiment: Cytotoxicity against human A549 cells incubated for 20 hrs by MTT assay. It counts as functional, cell-based. To be noted: A549, 20 h.
For experiment [3], the system named is A549. The experiment is described as follows: Antiproliferative activity against human A549 cells assessed as inhibition of cell growth incubated for 48 hrs by MTT reagent based microplate reader assay. It counts as functional. The note with it: A549, 48 h.
Experiment [4] concerns DU-145. Nature of the experiment: Antiproliferative activity against human DU-145 cells assessed as inhibition of cell growth incubated for 48 hrs by MTT reagent based microplate reader assay. It is filed as functional. The note with it: DU-145, 48 h.
Another experiment concerns HCT-116. Nature of the experiment: Antiproliferative activity against human HCT-116 cells assessed as inhibition of cell growth incubated for 48 hrs by MTT reagent based microplate reader assay. It is filed as functional. To be noted: HCT-116, 48 h.
The subject of experiment [5] is HeLa. The experiment is described as follows: Antiproliferative activity against human HeLa cells assessed as inhibition of cell growth incubated for 48 hrs by MTT reagent based microplate reader assay. It counts as functional.
In experiment [6] the test system is HepG2. The experiment is described as follows: Antiproliferative activity against human HepG2 cells assessed as inhibition of cell growth incubated for 48 hrs by MTT reagent based microplate reader assay. It is filed as functional. The note with it: HepG2, 48 h.
For the next experiment, the system named is HT-29. Nature of the experiment: Antiproliferative activity against human HT-29 cells assessed as inhibition of cell growth incubated for 48 hrs by MTT reagent based microplate reader assay. It counts as functional. The note with it: HT-29, 48 h.
In experiment [7] the test system is MCF7. Nature of the experiment: Antiproliferative activity against human MCF7 cells assessed as inhibition of cell growth incubated for 48 hrs by MTT reagent based microplate reader assay. It is filed as functional. The note with it: MCF7, 48 h.
Another experiment deals with PANC-1. Nature of the experiment: Antiproliferative activity against human PANC-1 cells assessed as inhibition of cell growth incubated for 48 hrs by MTT reagent based microplate reader assay. It is filed as functional. The note with it: PANC-1, 48 h.
A further experiment deals with PC-3. Nature of the experiment: Antiproliferative activity against human PC-3 cells assessed as inhibition of cell growth incubated for 48 hrs by MTT reagent based microplate reader assay. To be noted: PC-3, 48 h. It counts as functional.
Another experiment has as its system Hep 3B2. Nature of the experiment: Cytotoxicity against human Hep3B cells assessed as inhibition of cell growth incubated for 24 hrs by MTT reagent based microplate reader assay. It is filed as functional.
Experiment [8] has as its system HepG2. The experiment is described as follows: Cytotoxicity against human HepG2 cells assessed as inhibition of cell growth incubated for 24 hrs by MTT reagent based microplate reader assay. It is filed as functional. The note with it: HepG2, 24 h.
The subject of another experiment is Huh-7. The experiment is described as follows: Cytotoxicity against human Huh-7 cells assessed as inhibition of cell growth incubated for 24 hrs by MTT reagent based microplate reader assay. It counts as functional. The note with it: Huh-7, 24 h.
In another experiment the test system is SCC-9. The experiment is described as follows: Cytotoxicity against human SCC-9 cells assessed as inhibition of cell growth incubated for 48 hrs by MTT reagent based spectrophotometric analysis. It counts as functional. The note with it: SCC-9, 48 h.
The subject of experiment [9] is SCC-25. Nature of the experiment: Cytotoxicity against human SCC-25 cells assessed as inhibition of cell growth incubated for 48 hrs by MTT reagent based spectrophotometric analysis. It is filed as functional. The note with it: SCC-25, 48 h.
The next experiment concerns SCC-4. The experiment is described as follows: Cytotoxicity against human SCC-4 cells assessed as inhibition of cell growth incubated for 48 hrs by MTT reagent based spectrophotometric analysis. It is filed as functional. To be noted: SCC-4, 48 h.
Experiment [10] concerns SCC-25. The experiment is described as follows: Cytotoxicity against human SCC-25 cells incubated for 48 hrs by MTT reagent based spectrophotometric analysis. It is filed as functional, cell-based. The note with it: SCC-25, 48 h.
For the next experiment, the system named is T-24. The experiment is described as follows: Cytotoxicity against human T24 cells assessed as reduction in cell growth incubated for 48 hrs by MTT assay. The note with it: T-24, 48 h. It counts as functional, cell-based.
Experiment [11] deals with DU-145. Nature of the experiment: Cytotoxicity against human DU-145 cells assessed as reduction in cell growth incubated for 48 hrs by MTT assay. It counts as functional, cell-based. To be noted: DU-145, 48 h.
For experiment [12], the system named is MCF7. The experiment is described as follows: Cytotoxicity against human MCF7 cells assessed as reduction in cell growth incubated for 48 hrs by MTT assay. It counts as functional, cell-based. To be noted: MCF7, 48 h.
In experiment [13] the test system is MCF7. The experiment is described as follows: Cytotoxicity against human MCF7 cells incubated for 24 hrs by MTT assay. It is filed as functional, cell-based. The note with it: MCF7, 24 h.
In a further experiment the test system is RPMI-8226. The experiment is described as follows: Cytotoxicity against human RPMI-8226 cells assessed as reduction in cell viability incubated for 72 hrs by MTT assay. It counts as functional, cell-based. The note with it: RPMI-8226, 72 h.
In experiment [14] the test system is MCF7. The experiment is described as follows: Cytotoxicity against human MCF7 cells assessed as reduction in cell viability incubated for 72 hrs by MTT assay. It counts as functional, cell-based. The note with it: MCF7, 72 h.
The test system of experiment [15] is HepG2. The experiment is described as follows: Cytotoxicity against human HepG2 cells assessed as reduction in cell viability incubated for 72 hrs by MTT assay. It counts as functional, cell-based. The note with it: HepG2, 72 h.
The next experiment deals with GBM. The experiment is described as follows: Cytotoxicity against human GBM cells assessed as inhibition of cell growth incubated for 72 hrs by MTT assay. It counts as functional, cell-based.
In another experiment the test system is U-87 MG. Nature of the experiment: Cytotoxicity against human U87 cells assessed as inhibition of cell growth incubated for 72 hrs by MTT assay. It is filed as functional, cell-based, U-87MG ATCC.
Experiment [16] concerns HepG2. The experiment is described as follows: Cytotoxicity against human HepG2 cells incubated for 48 hrs by MTT assay. It counts as functional, cell-based. The note with it: HepG2, 48 h.
Experiment [17] deals with HeLa. The experiment is described as follows: Cytotoxicity against human HeLa cells incubated for 48 hrs by MTT assay. It counts as functional, cell-based.
The next experiment concerns CCRF-CEM. Nature of the experiment: Antiproliferative activity against human CCRF-CEM cells assessed as inhibition of cell growth incubated for 72 hrs by resazurin assay. It is filed as functional, cell-based. On the technique in general: The colour change of resazurin is a common sign of viable cells or microbes.
For the next experiment, the system named is ADR5000 cell line. Nature of the experiment: Antiproliferative activity against human ADR5000 cell line assessed as inhibition of cell growth incubated for 72 hrs by resazurin assay. It is filed as functional, cell-based. The note with it: ADR5000, 72 h.

As a reminder, the IC50 is the concentration that gives 50% inhibition. `COc1ccc(OC)c2c1C(=O)C(Cl)=C(Cl)C2=O`: the IC50 is 2.68 µM in the experiment on HCC1806, 3.28 µM with MDA-MB-231, 1.63 µM in the experiment on Hs-578T and 5.5 µM in the experiment with MCF7 [1].

Take `O=C1C(Cl)=C(Nc2ccccc2)C(=O)c2ccccc21`: half-maximal inhibition in the experiment on A549 [2] (IC50) required 5.8 µM.

With `CCCCCCCC/C=C\CCCCCCCC(=O)Oc1cccc2c1C(=O)C=C(C)C2=O`, the IC50 with A549 [3] turned out to be 15.4 µM; with DU-145 [4], 8.8 µM; in the experiment on HCT-116, 6.5 µM; with HeLa [5] it was 21 µM; with HepG2 [6] it was 7.4 µM; in the experiment on HT-29, 2.9 µM. Moreover, the 50% inhibitory concentration (IC50) came to 7.2 µM with MCF7 [7], 16.1 µM in the experiment with PANC-1 and 10 µM in the experiment on PC-3.

As to `CCCS(=O)(=O)C12OC1C(=O)c1c(OC)ccc(OC)c1C2=O` (centres undefined), the figures for the IC50 in the experiment on Hep 3B2, with HepG2 [8] and in the experiment on Huh-7 were 3.89 µM, 5.26 µM and 7.68 µM, respectively.

On to `COC(=O)N(Cc1ccccc1)C(C1=C(O)C(=O)c2ccccc2C1=O)c1ccc(Cl)cc1` (centres undefined), for which the IC50 with SCC-9 was 56.2 µM; with SCC-25 [9] it was 87.3 µM; in the experiment with SCC-4, 92.8 µM.

The compound `CC(C)/C=C/C1=C(OCc2cn(-c3cccc(Cl)c3)nn2)C(=O)c2ccccc2C1=O` had a 50% inhibitory concentration (IC50) in the experiment with SCC-25 [10] of 9.81 µM.

A word on the EC50: it is the concentration giving half of the maximal effect. Take `O=C(C1=C(Nc2ccccc2)C(=O)c2ccccc2C1=O)c1ccco1`: the figures for the IC50 in the experiment with T-24, in the experiment with DU-145 [11] and in the experiment on MCF7 [12] were 11.7 µM, 5.45 µM and 4.64 µM, respectively. The same compound registered an EC50 in the experiment on MCF7 [13] of 15 µM.

Regarding `CCOC(=O)CCCCCNC1=C(F)C(=O)c2c(F)c(F)c(F)c(F)c2C1=O`, the half-inhibitory concentration (IC50) in the experiment with RPMI-8226 was 2.8 µM; with MCF7 [14], 1.4 µM; in the experiment on HepG2 [15], 2.1 µM.

For the compound `CC(C)=CCC1=C(NCCCCN(CCCN)Cc2ccccc2)C(=O)c2ccccc2C1=O`, the figures for the half-maximal inhibitory concentration (IC50) with GBM and in the experiment with U-87 MG were 6.6 µM and 4.3 µM, respectively.

Regarding `C[C@@H](CC[C@H]1O[C@H]2C[C@H]3[C@@H]4CC=C5C[C@@H](O)CC[C@]5(C)[C@H]4CC[C@]3(C)[C@H]2[C@@H]1C)COC1=C(Cl)C(=O)c2ccccc2C1=O`, the figures for the IC50 in the experiment with HepG2 [16] and in the experiment with HeLa [17] were 1.24 µM and 14.1 µM, respectively.

As to `CCOc1ccc(NC(=O)C2=C(SC(C)(C)C)C(=O)c3ccccc3C2=O)cc1`, the IC50 was determined as 1.9 µM in the experiment with CCRF-CEM and 2 µM in the experiment with ADR5000 cell line.
